“Also recorded” adds a separate entry of the source.
Key:
[1] = system: rabbit corneal hyposensitivity model; test: Improving effect on rabbit corneal hyposensitivity using microkeratome (corneal flap model, Cochet-Bonnet corneal sensitivity meter); type: in vivo; conditions: 0.01% instillation; for recovery of corneal sensitivity relative to control group: 50 μL 4 times a day for 1 week or 2 weeks after corneal flap preparation, measured weekly 1 to 8 weeks postsurgery, hydrochloride
Procedure: Japanese white rabbits (body weight 2.5-3.0 kg) purchased from Japan SLC were used. The animals were housed separately in cages in a room set to room temperature 23±3° C., humidity 55±10%, 12 hr light cycle (light on 8 am, light off on 8 pm) from arrival to the end of the test. A limited amount of a solid feed (Labo R-stock, Nosan Corporation, 100 g for one day) was given to the animals and a free access to tap water was allowed.
As the test substance, compound 1 was used. Compound 1 was dissolved in the following base solution to 0.01% and administered by instillation. The base solution was administered to the control group by instillation.
Prior to the start of the test, the anterior segment of eye of the animal was visually observed and cornea stained marks by fluorescein was observed, and the rabbits showing no abnormality in them were selected. Using Cochet-Bonnet corneal sensitivity meter (manufactured by LUNEAU), the initial value of corneal sensitivity was measured.
Intramuscular injection (0.9 mL/kg) of a Celactal (2% xylazine):Ketalar (5% ketamine)=0.5:1 mixture was given to the animals to perform systemic anesthesia, and the eyeball was sufficiently exposed. Using microkeratome (MK2000, Nidek) attached a rabbit eye adaptor inside a suction ring, a corneal flap (diameter 8.5 mm) was prepared with a 130 μm thick blade (Arbelaez M C. et al., J. Refract Surg., 2002 May-Jun. 18 (3 Suppl): S357-60). The corneal flap was certainly put back into position under a microscope, and the animal was woken up from the anesthesia while observing the animal to prevent displacement of the flap. […]
The corneal sensitivity was measured using a Cochet-Bonnet corneal sensitivity meter once every week from one to eight weeks after the surgery. […]
For statistical analysis, a parametric Dunnett multiple comparisons test (one sided) (SAS preclinical package; Version 5.0, SAS Institute Japan) was used and a risk of less than 5% was evaluated as significant.

[2] = system: cultured rabbit trigeminal nerve cells; test: Promoting effect on neuritogenesis in cultured rabbit trigeminal nerve cell; type: cell-based; conditions: compound 1 final concentration 1 μM, 48 hr of culture
Text: Japanese White rabbits (2-3 days old) purchased from KITAYAMA LABES Co., Ltd. were used.
The trigeminal nerve cell was isolated according to the report of Chan et al. (Chan, Kuan Y. and Haschke, Richard H., Exp. Eye Res., 41: 687-699, 1985). To be specific, under ether anesthesia, after cardiac perfusion with saline, the trigeminal ganglia was removed, dispersed using a nerve dispersion solution (SUMITOMO BAKELITE Co., Ltd.) to give a cell suspension. […]
After 48 hr of culture, the cells were fixed with 4% paraformaldehyde at room temperature for 2 hr, and nerve cell body and neurite were fluorescence stained using an anti-neurofilament 200 antibody (Sigma) that specifically recognizes neurofilaments which are intermediate filaments specific to a nerve cell and a fluorescent secondary antibody reactive therewith.
The stained cells were imported as images from a fluorescence microscope into a computer and the cell body diameter and neurite length of the imported cell images were measured using an image analysis software (Image-Pro Plus ver. 4.0, Planetron. Inc.). The cells of 3 wells were measured for each of the compound 1 addition group and the control group. The cells having a neurite with a length of not less than twice the diameter of a cell body were taken as neuritogenetic cells, and the percentage (%) of the neuritogenetic cells in the total cells measured was calculated.

SMILES: C[C@@H](N)c1ccc(C(=O)Nc2ccnc3[nH]ccc23)cc1.Cl [compound 1, (R)-(+)-N-(1H-pyrrolo[2,3-b]pyridin-4-yl)-4-(1-aminoethyl)benzamide 1 hydrochloride]
- corneal sensitivity compared to control group (statistical analysis) ([1]; 1-week administration group, at 5 week postsurgery, Dunnett test, p<0.05): significantly high
- recovery of corneal sensitivity relative to control group [1]: has an effect of promoting the recovery of corneal hyposensitivity
- recovery of corneal sensitivity relative to control group ([1]; listed as test substance): better recovery of corneal sensitivity than in the control group
- neuritogenesis of cultured trigeminal nerve cells (fluorescence microscope observation) ([2]; anti-neurofilament 200 staining, hydrochloride): many cells having a long-extended neurite were observed; also recorded: promotes neuritogenesis
- percentage (%) of the neuritogenetic cells in the total cells measured ([2]; N=3, mean, control group 24%, p<0.001 vs control): 54.6%
